{"source": "patent US20250170252A1", "about": "“QUINONE PROTECTED FORMS AND CONJUGATES” (CAMBRIDGE ENTERPRISE LIMITED, priority 2022, published 2025)", "key": {"HL-60 cells [1]": {"test_system": "HL-60 cells", "test": "Lysosomal inhibition assay with small molecule prodrugs", "format": "cell-based", "details": "HL-60, NH4Cl at 30 mM", "method": "Assays to assess the effect of lysosomal activity on prodrugs were performed as follows: HL-60 cells were plated into 96 well plates at a concentration of 2.5×10^5 cells/mL in 180 μL media. Cells were treated with 10 μL of a stock of NH4Cl in PBS (to obtain an in-plate concentration of 3 or 30 mM), 10 μL of a dilution of a DMSO stock of E64d in PBS (to obtain an in-plate concentration of 30 μM), PBS only, or a dilution of DMSO in PBS. Cells were incubated for 30 min. Following this, 10 μL of a stock of test compound made by dilution of a DMSO stock into media was added. DMSO was present in-plate at a maximum of 0.2%. Cells were incubated overnight for 16 h. Following incubation, media was replaced with media containing CellTiter-Blue (Promega) in 1:4 dilution and the plates were incubated for 6 h. The fluorescence of the plates was recorded (excitation 555 nm, emission 585 nm, MiniMax i3x Reader, Molecular Devices). Cell viability was calculated by division of the fluorescence intensity of treated wells by that of the calculated average fluorescence intensity of the relevant negative control wells. Values and reported error bars represent the mean and standard error of the mean of three triplicate repeats for each concentration tested."}, "[2]": {"test": "In vitro redox-cycling ability, phenol red/horseradish peroxidase assay", "format": "biochemical", "details": "HRP/phenol-red reporter assay, absorbance at 610 nm; up to 25 μM", "method": "In vitro redox cycling capability of compounds was assessed by phenol red/horseradish peroxidase (HRP) assay by adaption of a previously described protocol (Assay Drug Dev. Technol., 2008, 6, 505-518). Briefly, stocks were prepared as follows: (1) DTT to a concentration of 2.4 μM in PBS pH 7.4 buffer; (2) compound stocks in PBS pH 7.4 buffer to 3× the desired concentration by 1000× dilution of DMSO stocks; (3) a stock of phenol-red-HRP detection reagent containing 300 μg/mL phenol red and 180 μg/mL HRP enzyme in PBS pH 7.4 buffer; (4) a stock of 1 M NaOH in water; (5) a stock of 100 μM H2O2 in PBS prepared by addition of a 30% solution of H2O2 in water into 1000 μL of PBS. Into each well of a 96 well clear flat-bottomed plate was then added 40 μL of compound stock in PBS followed by 40 μL of DTT stock, followed immediately by 40 μL of phenol-red-HRP reagent. A positive control with 100 μM H2O2 added in place of compound was included. The plate was incubated in the dark at room temperature for 15 min. Following this 20 μL of 1 M NaOH was added to each well to terminate the reaction. Absorbance was immediately measured at 610 nm (MiniMax i3x Imager, Molecular Devices). Absorbance of treated wells was normalised to control wells treated with PBS only (zero redox cycling). All readings were performed in triplicate and error bars display standard error of the mean."}, "[3]": {"test_system": "Aspc-1 pancreatic cancer cell line", "test": "CellTiter Glo viability assay, Aspc-1", "format": "cell-based", "details": "Homo sapiens, ASPC1; Aspc-1, β-lapachone alone, 48 hours; read-out: IC50", "method": "For CellTiter Glo viability assays, 10,000 cells per well were plated on Day 1 and were allowed to adhere to the plate surface for 24 hours. Optimized concentration ranges of prodrugs were determined and made via serial dilution. […] Cells were incubated with compound for 48 hours and viability was assessed on Day 4 using the CellTiter Glo Viability assay which measures metabolically active cells by quantifying the amount of ATP present.\nPanc-1 cells were obtained from Tony Kouzarides' lab in the Gurdon Institute at the University of Cambridge and put into culture at passage 10 containing DMEM media (Gibco) supplemented with 1% Pen-Strep antibiotic (Gibco), 1% L-glutamine, and 10% fetal bovine serum (FBS, sterile-filtered). Aspc-1 cells were bought commercially from the American Type Culture Collection (ATCC) and put into culture containing RPMI 1640 media (Gibco) supplemented with 1% Pen-Strep antibiotic (Gibco), 1% L-glutamine, and 20% fetal bovine serum (FBS, sterile-filtered). All cell lines were started at passage 10 and passaged every 3 days by centrifuging at 1000 rpm for 4 minutes."}, "HL-60 cells [4]": {"test_system": "HL-60 cells", "test": "N-acetyl cysteine cytotoxicity assay", "format": "cell-based", "method": "For assays involving cytotoxicity of β-lapachone derivatives with and without antioxidant N—-acetyl cysteine, HL-60 cells were plated into 24 well plates at a concentration of 2.5×10^5 cells/mL in 450 μL. To each well was then added 25 μL of drug diluted in PBS to obtain the correct in-plate drug concentration, and 25 μL of PBS or a stock of N-acetyl cysteine at 12 mM in PBS. DMSO was maintained at an in-plate concentration of 0.1%. After 96 h incubation, toxicity was assessed by counting of live cells using the Trypan Blue exclusion method with a Countess II Automated Cell Counter (ThermoFisher Scientific) according to the manufacturer's instructions. Cell viability was determined by division of average live cell number of treated wells by average live cell number for control wells treated with 0.1% DMSO. […] Values recorded are the mean of three repeat wells, with error bars representing the standard error of the mean for each concentration tested."}, "HEK-293T": {"test_system": "HEK-293T", "test": "Toxicity with/without β-glucuronidase, HEK-293T", "format": "cell-based", "details": "Homo sapiens, read-out: IC50 β-lapachone, 1", "method": "Assays assessing cytotoxicity of β-lapachone and derivatives were performed by CellTiter-Blue assay (Promega) according to the manufacturer's instructions. Briefly, adherent cancer-cell lines were plated at 20,000 cells/well in 96 well plates or suspension cell lines were plated at a concentration of 2×10^5 cells/mL in 24 well plates. Compound stocks in media were made by dilution of DMSO stocks containing the compound of interest to obtain a final in-plate DMSO concentration of only 0.1%. Incubation was performed for 48 h. Following incubation, media was replaced with media containing CellTiter-Blue (Promega) in 1:10 dilution and the plates were incubated for 1.5-4 h. The fluorescence of the plates was recorded (excitation 555 nm, emission 585 nm, MiniMax i3x Reader, Molecular Devices).\nCell viability was calculated by division of the fluorescence intensity of treated wells by that of the calculated average fluorescence intensity of replicate negative control wells containing cells with 0.1% DMSO only. Values and reported error bars represent the mean and standard error of the mean of three triplicate repeats for each concentration tested. IC50 values were calculated using GraphPad Prism 8 software.\nThe potential of compound 37a, glucuronide-PHB-BL, as a prodrug was investigated. As discussed above, at physiological pH the compound has a relatively slow-release rate. Toxicity of Gluc-PHB-BL 37a was tested against a range of cell lines with and without added β-glucuronidase. Addition of the enzyme mimics conditions of the solid tumour environment."}}}
{"smiles": "CC1(C)CCC2=C(O1)c1ccccc1C(=O)C2=O", "note": "[Compound 1, β-lapachone, reference compound]", "values": [{"measurement": "toxicity with NH4Cl", "setting": "HL-60 cells [1]", "result": "increase in toxicity"}, {"measurement": "redox activity (in vitro redox-cycling capability)", "setting": "[2]", "result": "saturates the assay above 10 μM concentration"}, {"measurement": "IC50", "setting": "[3]", "result": 7660, "unit": "nM"}, {"measurement": "change of IC50 upon NAC addition", "setting": "HL-60 cells [4]; HL-60", "result": "more than doubled"}, {"measurement": "IC50", "setting": "HL-60 cells [4]; Homo sapiens, HL-60, HL-60, without NAC", "result": "470 ± 260", "unit": "nM"}, {"measurement": "IC50", "setting": "HEK-293T", "result": 2910, "unit": "nM"}]}
